Test results: PubChem BioAssay (NCI)
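Test compounds were applied to cells in 96-well plates for 48 hours at 5 doses. TGI: concentration producing complete growth inhibition.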

Experiments:
Experiment in all cases: DTP human tumour cell line panel, 48 h
786-0 renal = system: 786-0 renal
A498 renal = system: A498 renal
A549 NSCLC = system: A549 NSCLC
BT-549 breast = system: BT-549 breast
CAKI-1 renal = system: CAKI-1 renal
CCRF-CEM leukemia = system: CCRF-CEM leukemia
COLO 205 colon = system: COLO 205 colon
DU-145 prostate = system: DU-145 prostate
EKVX NSCLC = system: EKVX NSCLC
HCC-2998 colon = system: HCC-2998 colon
HCT-116 colon = system: HCT-116 colon
HCT-15 colon = system: HCT-15 colon
HL-60(TB) leukemia = system: HL-60(TB) leukemia
HOP-62 NSCLC = system: HOP-62 NSCLC
HOP-92 NSCLC = system: HOP-92 NSCLC
HS 578T breast = system: HS 578T breast
HT29 colon = system: HT29 colon
IGROV1 ovarian = system: IGROV1 ovarian
K-562 leukemia = system: K-562 leukemia
KM12 colon = system: KM12 colon
LOX IMVI melanoma = system: LOX IMVI melanoma
M14 melanoma = system: M14 melanoma
MALME-3M melanoma = system: MALME-3M melanoma
MCF7 breast = system: MCF7 breast
MDA-MB-231 breast = system: MDA-MB-231 breast
MDA-MB-435 = system: MDA-MB-435
MDA-N = system: MDA-N
MOLT-4 leukemia = system: MOLT-4 leukemia
NCI-H226 lung = system: NCI-H226 lung
NCI-H23 lung = system: NCI-H23 lung
NCI-H460 lung = system: NCI-H460 lung
NCI/ADR-RES ovarian = system: NCI/ADR-RES ovarian
OVCAR-3 ovarian = system: OVCAR-3 ovarian
OVCAR-4 ovarian = system: OVCAR-4 ovarian
OVCAR-5 ovarian = system: OVCAR-5 ovarian
OVCAR-8 ovarian = system: OVCAR-8 ovarian
PC-3 prostate = system: PC-3 prostate
RPMI-8226 leukemia = system: RPMI-8226 leukemia
RXF 393 renal = system: RXF 393 renal
SF-268 CNS = system: SF-268 CNS
SF-295 CNS = system: SF-295 CNS
SF-539 CNS = system: SF-539 CNS
SK-MEL-2 melanoma = system: SK-MEL-2 melanoma
SK-MEL-28 melanoma = system: SK-MEL-28 melanoma
SK-MEL-5 melanoma = system: SK-MEL-5 melanoma
SK-OV-3 ovarian = system: SK-OV-3 ovarian
SN12C renal = system: SN12C renal
SNB-19 CNS = system: SNB-19 CNS
SNB-75 CNS = system: SNB-75 CNS
SR leukemia = system: SR leukemia
SW-620 colon = system: SW-620 colon
T-47D breast = system: T-47D breast
U251 CNS = system: U251 CNS
UACC-257 melanoma = system: UACC-257 melanoma
UACC-62 melanoma = system: UACC-62 melanoma
UO-31 renal = system: UO-31 renal

CCOC(=O)c1ccc(C(=O)/C(C#N)=C2\CCCN2)[nH]1
TGI (786-0 renal): > 100 µM | TGI (A498 renal): > 100 µM | TGI (A549 NSCLC): > 100 µM | TGI (BT-549 breast): > 100 µM | TGI (CAKI-1 renal): > 100 µM | TGI (CCRF-CEM leukemia): > 100 µM | TGI (COLO 205 colon): > 100 µM | TGI (DU-145 prostate): > 100 µM | TGI (EKVX NSCLC): > 100 µM | TGI (HCC-2998 colon): > 100 µM | TGI (HCT-116 colon): > 100 µM | TGI (HCT-15 colon): > 100 µM | TGI (HL-60(TB) leukemia): > 100 µM | TGI (HOP-62 NSCLC): > 100 µM | TGI (HOP-92 NSCLC): > 100 µM | TGI (HS 578T breast): > 100 µM | TGI (HT29 colon): > 100 µM | TGI (IGROV1 ovarian): > 100 µM | TGI (K-562 leukemia): > 100 µM | TGI (KM12 colon): > 100 µM | TGI (LOX IMVI melanoma): > 100 µM | TGI (M14 melanoma): > 100 µM | TGI (MALME-3M melanoma): > 100 µM | TGI (MCF7 breast): > 100 µM | TGI (MDA-MB-231 breast): > 100 µM | TGI (MDA-MB-435): > 100 µM | TGI (MDA-N): > 100 µM | TGI (MOLT-4 leukemia): > 100 µM | TGI (NCI-H226 lung): > 100 µM | TGI (NCI-H23 lung): > 100 µM | TGI (NCI-H460 lung): > 100 µM | TGI (NCI/ADR-RES ovarian): > 100 µM | TGI (OVCAR-3 ovarian): > 100 µM | TGI (OVCAR-4 ovarian): > 100 µM | TGI (OVCAR-5 ovarian): > 100 µM | TGI (OVCAR-8 ovarian): > 100 µM | TGI (PC-3 prostate): > 100 µM | TGI (RPMI-8226 leukemia): > 100 µM | TGI (RXF 393 renal): > 100 µM | TGI (SF-268 CNS): > 100 µM | TGI (SF-295 CNS): > 100 µM | TGI (SF-539 CNS): > 100 µM | TGI (SK-MEL-2 melanoma): > 100 µM | TGI (SK-MEL-28 melanoma): > 100 µM | TGI (SK-MEL-5 melanoma): > 100 µM | TGI (SK-OV-3 ovarian): > 100 µM | TGI (SN12C renal): > 100 µM | TGI (SNB-19 CNS): > 100 µM | TGI (SNB-75 CNS): > 100 µM | TGI (SR leukemia): 84.5 µM | TGI (SW-620 colon): > 100 µM | TGI (T-47D breast): > 100 µM | TGI (U251 CNS): > 100 µM | TGI (UACC-257 melanoma): > 100 µM | TGI (UACC-62 melanoma): > 100 µM | TGI (UO-31 renal): > 100 µM
